According to article PMC3557573 (Cancer chemotherapy and pharmacology, 2012):
“And” between values parts separate entries of the source, which are not always exact repeats. Identical values can stand only once. Like-named read-outs stand apart in the source and are kept apart here.

How the values were obtained:
all 3 PKD isoforms = conditions: cited from earlier work
[1] = tested on: PANC-1 pancreatic cancer xenograft; conditions: po 80 mg/kg qd × 21 ref 31; cited from earlier work
CFPAC-1 xenografts = assay: Efficacy study in mice bearing CFPAC-1 xenografts; assay type: in vivo, C.B.-17 SCID mice
[2] = assay type: in vivo, C.B.-17 SCID mice
[3] = β-glucuronidase treatment of urine; assay type: in vitro ADME, mice; conditions: 0-6 h urine, 37 °C, 24 h, 10,000 units
[4] = tested on: PANC-1 pancreatic cancer cells; assay: MTT assay, in vitro cytotoxicity; assay type: cell-based, human; conditions: PANC-1, 72 h
[5] = Plasma protein binding, Rapid Equilibrium Dialysis; assay type: in vitro ADME
PC-3 xenografts = assay: Efficacy study in mice bearing PC-3 xenografts; assay type: in vivo, C.B.-17 SCID mice; conditions: 25 mg/kg/day iv qdx5, PC-3 xenografts
[6] = Partial mass balance of kb-NB142-70; assay type: in vivo, mouse; conditions: 5 min
[7] = tested on: PC-3 human androgen independent prostate cancer cells; assay: MTT assay, in vitro cytotoxicity; assay type: cell-based; conditions: PC-3, 72 h
[8] = Urinary and fecal excretion; conditions: for metabolite excreted in urine, % of dose: assuming equivalent UV absorption
[9] = tested on: PC-3 human androgen-independent prostate cancer cells; conditions: PC-3 ref 34; cited from earlier work
[10] = tested on: CFPAC-1 pancreatic cancer cells; assay: MTT assay, in vitro cytotoxicity; assay type: cell-based, human; conditions: CFPAC-1, 72 h
[11] = cited from earlier work
[12] = day 6, 50 mg/kg q3dx3, CFPAC-1 xenografts

SMILES: O=C1NCCCc2c1oc1ccc(O)cc21 [CID755673, reference compound]
- IC50 (all 3 PKD isoforms; against all 3 PKD isoforms ref 33): 0.2 to 0.3 µM

SMILES: CC[C@@H](N)CNc1ccnc(-c2cc(-c3cnn(C)c3)ccc2O)n1.Cl.Cl [CRT0066101]
- growth of PANC-1 xenograft [1]: slowed the growth

SMILES: Nc1ccn([C@@H]2O[C@H](CO)[C@@H](O)C2(F)F)c(=O)n1 [gemcitabine]
- tumor doubling time (CFPAC-1 xenografts; 50 mg/kg q3dx3, CFPAC-1 xenografts, control 2.2 days): 10.4 days
- T/C of mean tumor volume (CFPAC-1 xenografts; [12]): 22%
- mean tumor volume (CFPAC-1 xenografts; [12]): 335 mm^3

SMILES: O=C1NCCSc2c1sc1ccc(O)cc21 [kb-NB142-70]
- AUC0→∞ Brain ([2]; 25 mg/kg iv): 85 nmol·min/g
- AUC0→∞ Fat ([2]; 25 mg/kg iv): 1681 nmol·min/g
- AUC0→∞ Heart ([2]; 25 mg/kg iv): 236 nmol·min/g
- AUC0→∞ Kidney ([2]; 25 mg/kg iv): 1712 nmol·min/g
- AUC0→∞ Liver ([2]; 25 mg/kg iv): 266 nmol·min/g
- AUC0→∞ Lung ([2]; 25 mg/kg iv): 377 nmol·min/g
- AUC0→∞ Plasma ([2]; 25 mg/kg iv): 409 nmol·min/mL
- AUC0→∞ RBC ([2]; 25 mg/kg iv): 288 nmol·min/mL
- AUC0→∞ Skeletal Muscle ([2]; 25 mg/kg iv): 748 nmol·min/g
- AUC0→∞ Spleen ([2]; 25 mg/kg iv): 288 nmol·min/g
- AUC0→∞ Tumor ([2]; 25 mg/kg iv): 731 nmol·min/g
- AUC for plasma ([2]; 25 mg/kg iv): 409 nmol·min/mL
- AUC for tumor ([2]; 25 mg/kg iv): 731 nmol·min/mg
- AUC in fat ([2]; 25 mg/kg iv): 1681 nmol·min/g
- clearance ([2]; 25 mg/kg iv): 243 mL/min/kg
- plasma half-life ([2]; 25 mg/kg iv): 6 min
- volume of distribution ([2]; 25 mg/kg iv): approximately 2744 mL/kg
- kidney Cmax ([2]; 25 mg/kg iv, at 5 min): 63 nmol/g
- lung Cmax ([2]; 25 mg/kg iv, at 5 min): 27 nmol/g
- PC-3 xenograft (tumor) Cmax ([2]; 25 mg/kg iv, observed at 10 min): 11.8 nmol/g and 12 nmol/g
- blood brain barrier crossing ([2]; 25 mg/kg iv, brain concentrations lower than plasma): appeared to cross the blood brain barrier
- Brain concentration ([2]; 5 min after 25 mg/kg iv): 6.34 ± 1.72 nmol/g
- Fat concentration ([2]; 5 min after 25 mg/kg iv): 9.92 ± 0.52 nmol/g
- Heart concentration ([2]; 5 min after 25 mg/kg iv): 14.5 ± 2.0 nmol/g
- Kidney concentration ([2]; 5 min after 25 mg/kg iv): 63.4 ± 13.7 nmol/g
- Liver concentration ([2]; 5 min after 25 mg/kg iv): 23.4 ± 1.1 nmol/g
- Lung concentration ([2]; 5 min after 25 mg/kg iv): 26.8 ± 3.3 nmol/g
- Plasma concentration ([2]; 5 min after 25 mg/kg iv): 36.9 ± 8.3 µM
- RBC concentration ([2]; 5 min after 25 mg/kg iv): 23.6 ± 1.7 nmol/mL
- Skeletal Muscle concentration ([2]; 5 min after 25 mg/kg iv): 18.4 ± 4.6 nmol/g
- Spleen concentration ([2]; 5 min after 25 mg/kg iv): 21.2 ± 3.8 nmol/g
- Tumor concentration ([2]; 5 min after 25 mg/kg iv): 5.62 ± 1.63 nmol/g
- Brain concentration ([2]; 10 min after 25 mg/kg iv): 5.07 ± 0.57 nmol/g
- Fat concentration ([2]; 10 min after 25 mg/kg iv): 8.93 ± 1.71 nmol/g
- Heart concentration ([2]; 10 min after 25 mg/kg iv): 13.1 ± 2.5 nmol/g
- Kidney concentration ([2]; 10 min after 25 mg/kg iv): 48.9 ± 15.8 nmol/g
- Liver concentration ([2]; 10 min after 25 mg/kg iv): 6.41 ± 0.56 nmol/g
- Lung concentration ([2]; 10 min after 25 mg/kg iv): 16.7 ± 1.2 nmol/g
- Plasma concentration ([2]; 10 min after 25 mg/kg iv): 23.4 ± 7.4 µM
- RBC concentration ([2]; 10 min after 25 mg/kg iv): 13.2 ± 2.7 nmol/mL
- Skeletal Muscle concentration ([2]; 10 min after 25 mg/kg iv): 15.5 ± 4.0 nmol/g
- Spleen concentration ([2]; 10 min after 25 mg/kg iv): 12.6 ± 2.5 nmol/g
- Tumor concentration ([2]; 10 min after 25 mg/kg iv): 11.8 ± 4.0 nmol/g
- Brain concentration ([2]; 15 min after 25 mg/kg iv): 2.40 ± 0.40 nmol/g
- Fat concentration ([2]; 15 min after 25 mg/kg iv): 6.65 ± 0.74 nmol/g
- Heart concentration ([2]; 15 min after 25 mg/kg iv): 6.23 ± 1.96 nmol/g
- Kidney concentration ([2]; 15 min after 25 mg/kg iv): 27.0 ± 12.4 nmol/g
- Liver concentration ([2]; 15 min after 25 mg/kg iv): 8.41 ± 0.29 nmol/g
- Lung concentration ([2]; 15 min after 25 mg/kg iv): 10.4 ± 4.9 nmol/g
- Plasma concentration ([2]; 15 min after 25 mg/kg iv): 10.3 ± 3.7 µM
- RBC concentration ([2]; 15 min after 25 mg/kg iv): 6.94 ± 2.26 nmol/mL
- Skeletal Muscle concentration ([2]; 15 min after 25 mg/kg iv): 9.45 ± 2.47 nmol/g
- Spleen concentration ([2]; 15 min after 25 mg/kg iv): 8.03 ± 3.39 nmol/g
- Tumor concentration ([2]; 15 min after 25 mg/kg iv): 5.22 ± 3.60 nmol/g
- Brain concentration ([2]; 30 min after 25 mg/kg iv): 0.84 ± 0.11 nmol/g
- Fat concentration ([2]; 30 min after 25 mg/kg iv): 2.80 ± 0.45 nmol/g
- Heart concentration ([2]; 30 min after 25 mg/kg iv): 2.60 ± 0.53 nmol/g
- Kidney concentration ([2]; 30 min after 25 mg/kg iv): 10.1 ± 2.0 nmol/g
- Lung concentration ([2]; 30 min after 25 mg/kg iv): 2.95 ± 1.69 nmol/g
- Plasma concentration ([2]; 30 min after 25 mg/kg iv): 2.0 ± 1.9 µM
- RBC concentration ([2]; 30 min after 25 mg/kg iv): 2.31 ± 1.70 nmol/mL
- Skeletal Muscle concentration ([2]; 30 min after 25 mg/kg iv): 2.28 ± 0.56 nmol/g
- Tumor concentration ([2]; 30 min after 25 mg/kg iv): 4.22 ± 1.92 nmol/g
- Fat concentration ([2]; 60 min after 25 mg/kg iv): 2.62 ± 1.35 nmol/g
- Kidney concentration ([2]; 60 min after 25 mg/kg iv): 2.87 ± 0.56 nmol/g
- Skeletal Muscle concentration ([2]; 60 min after 25 mg/kg iv): 1.05 ± 0.02 nmol/g
- Tumor concentration ([2]; 60 min after 25 mg/kg iv): 1.24 ± 0.95 nmol/g
- Fat concentration ([2]; 120 min after 25 mg/kg iv): 0.77 ± 0.13 nmol/g
- Kidney concentration ([2]; 120 min after 25 mg/kg iv): 3.76 ± 0.82 nmol/g
- Skeletal Muscle concentration ([2]; 120 min after 25 mg/kg iv): 0.95 ± 0.01 nmol/g
- Tumor concentration ([2]; 120 min after 25 mg/kg iv): 0.79 ± 0.32 nmol/g
- Fat concentration ([2]; 240 min after 25 mg/kg iv): 0.45 ± 0.06 nmol/g
- Kidney concentration ([2]; 240 min after 25 mg/kg iv): 1.78 ± 0.29 nmol/g
- Skeletal Muscle concentration ([2]; 240 min after 25 mg/kg iv): 1.00 ± 0.01 nmol/g
- Tumor concentration ([2]; 240 min after 25 mg/kg iv): 0.57 ± 0.60 nmol/g
- Fat concentration ([2]; 360 min after 25 mg/kg iv): 0.36 ± 0.03 nmol/g
- Skeletal Muscle concentration ([2]; 360 min after 25 mg/kg iv): 0.97 ± 0.06 nmol/g
- Tumor concentration ([2]; 360 min after 25 mg/kg iv): 1.21 ± 0.78 nmol/g
- Fat concentration ([2]; 960 min after 25 mg/kg iv): 0.85 ± 0.42 nmol/g
- Fat concentration ([2]; 1440 min after 25 mg/kg iv): 0.44 ± 0.07 nmol/g
- Cmax ([2]; read-out: Plasma Cmax, 25 mg/kg iv, observed at 5 min): 36.9 µM and 37 µM
- increase in parent on incubation of urine with β-glucuronidase [3]: ~ 410%
- potency relative to CID755673 (all 3 PKD isoforms): ≥ 2 fold
- IC50 [4]: 34 ± 7 µM
- plasma protein bound ([5]; 0.3 μg/mL): 78%
- plasma protein bound ([5]; 3 μg/mL): 78%
- effect on the growth of the tumor xenografts (PC-3 xenografts): no effect
- toxicity or changes in body weights (PC-3 xenografts): did not result in any toxicity or changes in the body weights
- administered dose detectable in plasma and collected tissues as parent compound [6]: 12.5%
- total administered dose detectable in plasma and collected tissues ([6]; parent plus metabolite): 13.6 % of the dose
- IC50 [7]: 21 ± 6 µM
- urinary excretion of parent, % of dose ([8]; 0-6 h urine): 2.5%
- metabolite excreted in urine, % of dose ([8]; 0-6 h urine): approximately 7.6%
- urinary excretion of parent, % of dose ([8]; 6-24 h urine): 0.1%
- metabolite excreted in urine, % of dose ([8]; 6-24 h urine): ~1.2%
- fecal excretion, % of dose ([8]; mouse, in vivo): 0.67%
- EC50 [9]: 8 µM
- IC50 [10]: 5.2 ± 0.1 µM

SMILES: COc1ncc2sc3c(c2n1)SCCNC3=O [kmg-NB4-23]
- aqueous solubility [11]: poor
